Measured values as given in patent US7666901B2, “Analogs of 17-hydroxywortmannin as PI3K inhibitors” (Wyeth, priority 2004, dated 2010).
Like-named read-outs stand apart in the source and are kept apart here.

What was measured:
Human TOR = target: T1, Human TOR (Homo sapiens, UniProt P42345); test: Human TOR (mTOR) kinase assay, DELFIA format; format: biochemical
T1 construct: FLAG
Summary of the method: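 Purified FLAG-TOR (800 ng/mL) phosphorylates His6-S6K ([…]) with […] ATP in Hepes pH 7.4 buffer containing MnCl2, 2 h at room temperature. Phospho-Thr389 S6K detected by DELFIA using Europium-labelled anti-P(T389)-p70S6K antibody; enzyme inhibition calculated from signal.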

PI3K [1] = system: T2, PI3K; test: Fluorescence polarization assay for PI3K; format: biochemical; conditions: for PI3K FP IC50: Table 1
T2 construct: PI3K FP IC50
Summary of the method: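 PI3K was preincubated with compound at 1% DMSO final, then reacted with PIP2/ATP substrate for 30-60 min. The reaction was stopped with a detector mix giving 10 nM red probe and 70 nM GST-GRP. Fluorescence polarization (mP, Tamra filters) was read 30-90 min later and IC50 determined.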

[2] = system: phosphor-AKT (S473) in Rat1 cells; test: Rat1-IGF1 assay (IGF-1 induced phospho-AKT immunoblot); format: cell-based, rat
Summary of the method: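 After 24 h serum starvation, Rat1 cells got vehicle or varying 17-HWT concentrations for 2 hours, then IGF-1 (100 ng/mL) for 30 minutes. Lysates immunoblotted for phospho-AKT (S473) and total AKT.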

[3] = system: LNCaP (human prostate carcinoma); test: Cell proliferation (MTS) assay, LNCaP; format: cell-based; conditions: three days treatment
Summary of the method: (§1)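 Cells plated at about 3000 per well in RPMI-1640/10% FBS were dosed with compound one day later. Viability was read by MTS conversion (absorbance 490 nm, 1–2 h) three days after treatment began. Effect is expressed as percent of vehicle-treated growth on the same plate.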

[4] = system: MDA468 (human breast cancer cell); test: Cell proliferation (MTS) assay, MDA468; format: cell-based; conditions: three days treatment
Summary of the method: as §1

[5] = system: MDA435 (human breast adenocarcinoma); test: Cell proliferation (MTS) assay, MDA435; format: cell-based; conditions: three days treatment
Summary of the method: as §1

[6] = system: DU145 (human prostate carcinoma/lymphocytic leukemia); test: Cell proliferation (MTS) assay, DU145; format: cell-based; conditions: three days treatment
Summary of the method: as §1

PI3K [7] = conditions: cited from earlier work
C3H mammary model = conditions: cited from earlier work
[8] = system: HER2/Neu-overexpressing MDA361-DYT2 breast tumor cells; test: Tumor cell growth assay, HKI-272 and combination, MDA361-DYT2; format: cell-based, human; conditions: in vitro and in vivo
Method: Human tumor cell are all obtained from ATCC, and are cultured using standard cell culture methods. Cells are plated in 96-well culture plates at 1000 to 3000 cells per well. One day following plating, cells are treated with various doses of PI3K inhibitor Compound 4 or Compound 5 alone or with a low constant dose of MEK inhibitor 2-(2-chloro-4-iodoanilino)-N-(cycloprorylmethoxy-3,4-difluobenzamide) (1 μg/ml) or UO126 (5 μg/ml). UO126 is also known as 1,4-diamino-2,3-dicyano-1,4-bis[2-aminophenylthio]butadiene. In some experiments, cells are treated alone with various doses of the MEK inhibitor (2-(2-chloro-4-iodoanilino)-N-(cycloprorylmethoxy-3,4-difluobenzamide)), or HER2/neu inhibitor HKI-272, or mTOR inhibitor CCI-779, or with a low constant dose of Compound 4 (0.1 μg/ml). […] Three days after drug treatment, viable cell densities are determined by metabolic conversion (by viable cells) of the dye MTS, an established cell proliferation assay. […] The MTS assay results are read in a 96-well plate reader by measuring absorbance at 490 nm. The effect of each treatment is calculated as percent of control growth relative to the vehicle DMSO-treated cells grown in the same culture plate. […]

[9] = system: phosphorylated Her2/Neu, ERK and AKT pathway markers in MDA361-DYT2; test: Western blot analysis of pathway markers, MDA361-DYT2; format: cell-based, human; conditions: 0.1 μg/ml
Method: Cells are plated in 6-well culture plates. 24 hr later, cells are treated with indicated single agents or combined agents for 16 hr in full growth media. Protein lysates are prepared for Western blot analysis as previously described in Yu, K., et al., Endocr. Relat. Cancer. 2001 September :8(3) 249-58.

Row | Compound | TOR IC50 (Human TOR; Table 1) [µg/mL] | PI3K FP IC50 (PI3K [1]) [µg/mL] | Rat1-IGF1 IC50 ([2]; Table 1) [µg/mL] | LNCaP IC50 ([3]; Table 1) [µg/mL] | MDA468 IC50 ([4]; Table 1) [µg/mL] | MDA435 IC50 ([5]; Table 1) [µg/mL] | DU145 IC50 ([6]; Table 1) [µg/mL] | other results
1 | COC[C@H]1OC(=O)c2coc3c2[C@@]1(C)C1=C(C3=O)[C@@H]2CC[C@H](O)[C@@]2(C)C[C@H]1OC(C)=O [Compound 17-OH-Wort, 17β-Hydroxywortmannin, reference compound] | 0.076 | 0.0034 | <0.01 | 1 | 2.3 | >15 | 15 | TOR IC50 (Human TOR; Table 2): 0.059 µg/mL; IC50 (PI3K [1]; Table 2): 2 nM; Rat1-IGF1 IC50 ([2]; Table 2): <0.01 µg/mL; LNCaP IC50 ([3]; Table 2): 0.3 µg/mL; MDA468 IC50 ([4]; Table 2): 3 µg/mL; MDA435 IC50 ([5]; Table 2): 20 µg/mL; DU145 IC50 ([6]; Table 2): 13 µg/mL; increase in activity relative to wortmannin (PI3K [7]; PI3K, literature): 10 fold; IC50 (PI3K [7]; literature value): 0.5 nM; toxicity (C3H mammary model; dose of 1.0 mg/kg): toxicity; antitumor activity (C3H mammary model; dose of 0.5 (mg/kg)): no inhibition
2 | CCOc1cc2ncc(C#N)c(Nc3ccc(OCc4ccccn4)c(Cl)c3)c2cc1NC(=O)/C=C/CN(C)C [HKI-272, (E)-N-{4-[3-chloro-4-(2-pyridinylmethoxy)anilino]-3-cyano-7-ethoxy-6-quinolinyl}-4-(dimethylamino)-2-butenamide] | – | – | – | – | – | – | – | sensitivity of MDA361-DYT2 to single agent [8]: resistant; effect on AKT pathway markers [9]: little effect; phosphorylated forms of Her2/Neu and ERK [9]: completely inhibited
3 | (1E,4S,4aR,5R,6aS,7S)-7,11-dihydroxy-4-(methoxymethyl)-4a,6a-dimethyl-1-{[methyl(1-methylpyrrolidin-3-yl)amino]methylene}-2,10-dioxo-1,2,4,4a,5,6,6a,7,8,9,9a,10-dodecahydroindeno[4,5-h]isochromen-5-yl acetate [Compound 6] | 0.66 | 0.07 | 0.02 | 0.55 | 2.01 | >15 | 13 | –
